Data: PubChem BioAssay AID2748 (The Scripps Research Institute Molecular Screening Center, 2010)

target: Heat shock protein HSP 90-alpha (Homo sapiens) (UniProt P07900); test: inhibition of human Hsp90, late-stage follow-up, biochemical, luminescence (AID 2748); conditions: Hsp90 biochemical assay, luminescence read-out

IC50, active:
Cc1cc(NO)nc(-c2ccc(Br)cc2)n1 871 nM
CCc1ccc(OCc2ccc(C(=O)OC)o2)cc1 1030 nM
COc1cc(C=NNc2ccc(Cl)c(C(=O)O)c2)ccc1OC(=O)c1ccc(F)cc1 1820 nM
CC(=O)Nc1ccccc1OCC(=O)c1cc(C)n(Cc2cccs2)c1C 100 nM
CCOC(=O)c1csc(NC(=O)c2cc3ccccc3o2)n1 878 nM
CCOC(=O)C1=C(c2ccc(OC)cc2)C(=O)c2ccccc2C1=O 308 nM
Cc1c(-c2nc(-c3ccc(C(C)(C)C)cc3)no2)n(C)oc1=O < 3 nM
COc1ccccc1NC(=O)c1coc(=O)c(Br)c1 457 nM
Cc1c(-c2nc(-c3ccc(C(F)(F)F)cc3)no2)n(C)oc1=O 1600 nM
